The values below come from PubChem BioAssay AID504702 (Southern Research Specialized Biocontainment Screening …, 2011).

Molecules are shown by their SMILES. Activity calls are given as the source filed them. The rule behind the calls is not given here.

The test system of experiment [1] is M. tuberculosis H37Rv with meropenem, growth inhibition. Put plainly: M. tuberculosis growth inhibition with meropenem, dose response, H37Rv, set 2 (AID 504702).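 For all read-outs here: growth read by Alamar Blue after 7 days plus overnight incubation.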 The note with it: for IC90: measured here: IC90 growth with meropenem.
Assay in experiment [2]: as above
To be noted: M. tuberculosis H37Rv with meropenem, growth inhibition.

Regarding `S=C(Nc1ccccc1)Nc1ccc(Cl)cn1`, in experiment [1], the IC50 is 6.64 µM and the IC90 was over 25 µM. In addition, the growth inhibition in experiment [2] (at 18.8 µM (top of the series)) was 1.73% (inactive).
As for `COc1cccc(-c2ccc(-c3noc(-c4ccccc4F)n3)c(OC)n2)c1`, the IC90 in experiment [1] is over 25 µM. Besides, the growth inhibition in experiment [2] (at 18.8 µM (top of the series)) is 5.58% (inactive).
For `Cc1ccccc1OCC(=O)Nc1ccccc1-c1ccccc1`, in experiment [1], the IC50 was 14.6 µM and the IC90 is over 25 µM. In addition, in experiment [2] (at 18.8 µM (top of the series)), the growth inhibition was 23.6% (inactive).
Consider `O=C(Cc1ccccc1Cl)Nc1nc2ccccc2[nH]1`, for which, in experiment [1], the IC50 was 18.9 µM and the IC90 is over 25 µM. For the same molecule, the growth inhibition in experiment [2] (at 18.8 µM (top of the series)) is -1.22% (inactive).
With `Cc1ccccc1OCC(=O)Nc1noc(-c2ccccc2)n1`, the growth inhibition in experiment [2] (at 25 µM (top of the series)) is -4.18% (inactive).
With `Cc1cc(C)c(OCC(=O)Nc2nc3ccccc3[nH]2)c(C)c1`, in experiment [1], the IC50 is 5.55 µM and the IC90 was over 25 µM. Besides, the growth inhibition in experiment [2] (at 18.8 µM (top of the series)) was 5.17% (inactive).
`COC(=O)c1c(C)[nH]c2ccc(F)cc12`: the growth inhibition in experiment [2] (at 25 µM (top of the series)) was -3.53% (inactive).
Still for that read-out and setting: next, `N/C(=N\c1nc2ccccc2o1)NC(=O)c1ccccc1`: 2.3% (inactive).
For `CCOc1ccc2nc(NC(=O)c3cnccn3)sc2c1`, the growth inhibition is -0.94% (inactive) in experiment [2] (at 18.8 µM (top of the series)) and 20.9% (inactive) in experiment [2] (at 25 µM (top of the series)).
Take `CCOc1ccc2nc(NC(=O)COc3ccccc3)sc2c1`: the growth inhibition in experiment [2] (at 25 µM (top of the series)) is -8.57% (inactive).
As for `Cc1ccc(C(C)C)c(OCC(=O)Nc2nc3ccccc3s2)c1`, the growth inhibition in experiment [2] (at 25 µM (top of the series)) was -4.96% (inactive).
As to `O=C(O)CCC(=O)Nc1nc2ccccc2s1`, in experiment [2] (at 25 µM (top of the series)), the growth inhibition is -2.73% (inactive).
Still for that read-out and setting: as for `N/C(=N\c1nc2ccccc2o1)NC(=O)C1CC1`, the figure is 9.34% (inactive).
Still for that read-out and setting: next, `COC(=O)c1ccc2nc(NC(=O)COc3ccccc3)sc2c1`: 15.1% (inactive); `CCOc1ccc2[nH]ccc2c1`: 2.77% (inactive); `CCOc1ccc2[nH]c(C)cc2c1`: -0.67% (inactive).
On the same count and under the same terms, next, `O=C(COc1ccccc1Cl)Nc1nc2ccccc2s1`: -4.37% (inactive).
Take `O=C(COc1ccccc1)Nc1nc2ccccc2s1`: the growth inhibition in experiment [2] (at 25 µM (top of the series)) was -1.01% (inactive).
On the same count and under the same terms, as for `Cc1ccc2sc(NC(=O)COc3ccccc3)nc2c1C`, the figure is 14.4% (inactive); as for `CCOC(=O)c1c(C)[nH]c2ccccc12`, -5.69% (inactive); as for `Cc1ccc(OCC(=O)Nc2nc3c(Cl)cccc3s2)cc1`, -2.68% (inactive).
On the same count and under the same terms, next, `COc1ccc2nc(NC(=O)COc3c(C)cc(C)cc3C)sc2c1`: -3.9% (inactive); `CC(=O)c1c(C)n(-c2ccccc2)c2ccc(OC(C)C)cc12`: 8.61% (inactive); `Cc1cccc(C)c1OCC(=O)Nc1nc2ccc(Cl)cc2s1`: -2.26% (inactive).
Still for that read-out and setting: next, `Cc1ccc(OCC(=O)Nc2nnn(C)n2)c(C)c1`: -3.74% (inactive).
`COc1ccc2nc(NC(=O)C(C)Oc3ccccc3)sc2c1` (stereo not given): in experiment [2] (at 25 µM (top of the series)), the growth inhibition is -2.23% (inactive).
In the case of `COc1ccc2nc(NC(=O)COc3ccccc3)sc2c1`, the growth inhibition in experiment [2] (at 25 µM (top of the series)) is -1.31% (inactive).
The same measure, in the same setting: next, `CCCOc1ccc2c(c1)c(C(C)=O)c(C)n2-c1ccccc1`: 20.4% (inactive); `Cc1ccc(OC(C)C(=O)Nc2ncccn2)c(C)c1` (stereo not given): 3.48% (inactive).
Regarding `c1ccc(-c2cc(N3CCOCC3)nc3ccccc23)cc1`, in experiment [1], the IC50 was 10 µM and the IC90 is over 18.8 µM. In addition, the growth inhibition in experiment [2] (at 25 µM (top of the series)) was 6.06% (inactive).
Consider `COc1ccc2nc(NC(=O)COc3ccccc3C(C)C)sc2c1`, for which the growth inhibition in experiment [2] (at 25 µM (top of the series)) was -2.44% (inactive).
Regarding `Cc1cc(C)c(OCC(=O)Nc2nc3ccc(C)cc3s2)c(C)c1`, in experiment [2] (at 25 µM (top of the series)), the growth inhibition was -0.38% (inactive).
On the same count and under the same terms, as for `Cc1ccc(OCC(=O)Nc2nc3ccc(F)cc3s2)cc1`, the figure is -0.17% (inactive).
On the same count and under the same terms, next, `CCC(CC)c1nnc(NC(=O)c2ccc(N3CCCCC3)c([N+](=O)[O-])c2)s1`: 2.49% (inactive); `CC(=O)c1c(C)n(-c2ccccc2C)c2ccc(O)cc12`: -1.1% (inactive).
In the case of `CCOc1ccc2nc(NC(=O)Cc3ccc(OC)cc3)sc2c1`, in experiment [2] (at 25 µM (top of the series)), the growth inhibition is -9.77% (inactive).
The same measure, in the same setting: as for `COc1ccc2nc(NC(=O)c3oc4ccccc4c3C)sc2c1`, the figure is -4.34% (inactive); as for `Cc1cc2cc(Cl)ccc2[nH]1`, 0.31% (inactive); as for `O=C(COc1ccc2c3c(c(=O)oc2c1)CCC3)Nc1nc2ccccc2[nH]1`, -4.95% (inactive).
Still for that read-out and setting: next, `COc1ccc2[nH]c(C)cc2c1`: 0.56% (inactive); `CCC(=O)N/C(N)=N/c1nc2ccccc2o1`: -1.89% (inactive).
Still for that read-out and setting: next, `CC(Oc1ccccc1)C(=O)Nc1nc2ccc(S(C)(=O)=O)cc2s1` (stereo not given): -1.72% (inactive); `COC(=O)c1c(C)[nH]c2ccccc12`: -4.94% (inactive); `Cc1cc2ccccc2n1-c1ccccc1`: -0.06% (inactive).
Consider `Cc1cc2cc(Cl)ccc2n1-c1ccccc1`, for which, in experiment [2] (at 25 µM (top of the series)), the growth inhibition is 16.5% (inactive).
Same read-out and setting: next, `Oc1ccc2[nH]ccc2c1`: 3.81% (inactive); `Cc1ccc(OCC(=O)Nc2ccc(Cl)cc2)c(C)c1`: -3.91% (inactive).
Regarding `CCOc1ccc2nc(NC(=O)COc3ccc(OC)cc3)sc2c1`, the growth inhibition in experiment [2] (at 25 µM (top of the series)) was -8.22% (inactive).
